# ChEMBL document CHEMBL3217739 (Medchemcomm, 2011)
# What was measured:
# Plasmodium falciparum [1] = assay: Antimalarial activity against schizont stage of chloroquine-resistant Plasmodium falciparum W2 infected in erythrocytes assessed as inhibition of [3H]hypoxanthine incorporation after 48 hrs by scintillation counting analysis; format: functional, organism-based
# Plasmodium falciparum [2] = assay: Antimalarial activity against schizont stage of chloroquine-resistant Plasmodium falciparum W2 infected in erythrocytes assessed as inhibition of [3H]hypoxanthine incorporation after 96 hrs by scintillation counting analysis; format: functional, organism-based
# Toxoplasma gondii [3] = assay: Antitoxoplasma activity against Toxoplasma gondii RH tachyzoites isolated from human brain assessed as parasite growth inhibition after 24 hrs by hematoxylin-eosin staining based light microscopy; format: functional, organism-based
# Plasmodium falciparum [4] = assay: Antimalarial activity against schizont stage of chloroquine-susceptible Plasmodium falciparum 3D7 infected in erythrocytes assessed as inhibition of [3H]hypoxanthine incorporation after 96 hrs by scintillation counting analysis; format: functional, organism-based
# Toxoplasma gondii [5] = assay: Antitoxoplasma activity against Toxoplasma gondii RH tachyzoites isolated from human brain assessed as parasite growth inhibition after 48 hrs by hematoxylin-eosin staining based light microscopy; format: functional, organism-based
# Plasmodium falciparum [6] = assay: Antimalarial activity against schizont stage of chloroquine-susceptible Plasmodium falciparum 3D7 infected in erythrocytes assessed as inhibition of [3H]hypoxanthine incorporation after 48 hrs by scintillation counting analysis; format: functional, organism-based
# Plasmodium falciparum [7] = assay: Antimalarial activity against schizont stage of atovaquone-resistant Plasmodium falciparum Tm90C2b infected in erythrocytes assessed as inhibition of [3H]hypoxanthine incorporation after 48 hrs by scintillation counting analysis; format: functional, organism-based
# [8] = Cytotoxicity against concanavalin A stimulated BALB/c mouse splenocytes after 72 hrs by alamar blue dye based plate reader analysis; format: cell-based, Splenocyte; conditions: read-out: LD50
# [9] = Stability of the compound in RPMI medium assessed as half life at 100 uM by HPLC analysis in presence of 10% human serum; format: physicochemical; conditions: RPMI medium with 10% human serum
# [10] = Chemical stability of the compound in aqueous phosphate buffer of pH 7.4 assessed as half life at 100 uM by HPLC analysis; format: physicochemical
# [11] = Cytotoxicity against rhesus monkey LLC-MK2 cells assessed as cell viability after 48 hrs by MTS assay; format: cell-based, Macaca mulatta; conditions: read-out: LD50
# Plasmodium falciparum [12] = assay: Antimalarial activity against schizont stage of atovaquone-resistant Plasmodium falciparum Tm90C2b infected in erythrocytes assessed as inhibition of [3H]hypoxanthine incorporation after 96 hrs by scintillation counting analysis; format: functional, organism-based
# Plasmodium falciparum [13] = assay: Ratio of ciprofloxacin IC50 to compound IC50 for atovaquone-resistant Plasmodium falciparum Tm90C2b infected in erythrocytes after 96 hrs; format: functional
# Plasmodium falciparum [14] = assay: Ratio of ciprofloxacin IC50 to compound IC50 for atovaquone-resistant Plasmodium falciparum Tm90C2b infected in erythrocytes after 48 hrs; format: functional
# [15] = Therapeutic index, ratio of LD50 for concanavalin A stimulated BALB/c mouse splenocytes to IC50 for chloroquine-susceptible Plasmodium falciparum 3D7 infected in erythrocytes; format: cell-based; conditions: read-out: Ratio LD50/IC50
# Plasmodium falciparum [16] = assay: Ratio of ciprofloxacin IC50 to compound IC50 for chloroquine-susceptible Plasmodium falciparum 3D7 infected in erythrocytes after 48 hrs; format: functional
# [17] = Therapeutic index, ratio of LD50 for rhesus monkey LLC-MK2 cells to IC50 for Toxoplasma gondii RH tachyzoites; format: cell-based; conditions: read-out: Ratio LD50/IC50
# Plasmodium falciparum [18] = assay: Ratio of ciprofloxacin IC50 to compound IC50 for chloroquine-susceptible Plasmodium falciparum 3D7 infected in erythrocytes after 96 hrs; format: functional
# Plasmodium falciparum [19] = assay: Ratio of ciprofloxacin IC50 to compound IC50 for chloroquine-resistant Plasmodium falciparum W2 infected in erythrocytes after 48 hrs; format: functional
# Plasmodium falciparum [20] = assay: Ratio of ciprofloxacin IC50 to compound IC50 for chloroquine-resistant Plasmodium falciparum W2 infected in erythrocytes after 96 hrs; format: functional
SMILES,IC50 (Plasmodium falciparum [1]) [nM],IC50 (Plasmodium falciparum [2]) [nM],IC50 (Toxoplasma gondii [3]) [nM],IC50 (Plasmodium falciparum [4]) [nM],IC50 (Toxoplasma gondii [5]) [nM],IC50 (Plasmodium falciparum [6]) [nM],IC50 (Plasmodium falciparum [7]; read-out: IC50) [nM],CC50 at 72 h [8] [µM],half-life at 100 µM [9] [days],half-life at 100 µM [10] [days],CC50 at 48 h [11] [µM],IC50 (Plasmodium falciparum [12]) [nM],further results
CCOC(=O)c1cn(C2CC2)c2cc(N3CCNCC3)c(F)cc2c1=O [CIPROFLOXACIN ETHYL ESTER],3670,840,960,890,420,2330,3560,> 40,> 3.17,> 3.17,> 30,2270,–
O=C1C(O)=C([C@H]2CC[C@H](c3ccc(Cl)cc3)CC2)C(=O)c2ccccc21 [ATOVAQUONE],3.9,2,–,1.9,–,2.3,> 10000,–,–,–,–,388,–
O=C(O)c1cn(C2CC2)c2cc(N3CCNCC3)c(F)cc2c1=O [CIPROFLOXACIN],122000,16800,–,12800,–,47000,–,–,–,–,–,15300,IC50 (Plasmodium falciparum [7]): 71800 nM
CCOC(=O)c1cn(C2CC2)c2cc(N3CCN(CCC45CC6CC(CC(C6)C4)C5)CC3)c(F)cc2c1=O,2060,710,920,410,460,1000,2460,> 100,> 3.17,> 3.17,27.8,2230,Ratio IC50 (Plasmodium falciparum [13]): 7; Ratio IC50 (Plasmodium falciparum [14]): 29; selectivity ratio [15]: > 100; Ratio IC50 (Plasmodium falciparum [16]): 47; selectivity ratio [17]: > 60; Ratio IC50 (Plasmodium falciparum [18]): 31; Ratio IC50 (Plasmodium falciparum [19]): 60; Ratio IC50 (Plasmodium falciparum [20]): 7
C=C[C@H]1CN2CC[C@H]1C[C@H]2[C@H](O)c1ccnc2ccc(OC)cc12 [QUININE],917,–,–,112,–,–,1070,–,–,–,–,–,–
CCc1nc(N)nc(N)c1-c1ccc(Cl)cc1 [PYRIMETHAMINE],10.4,2.3,240,2.1,120,13.3,14.6,–,–,–,–,1.4,–
CCOC(=O)c1cn(C2CC2)c2cc(N3CCN(Cc4ccccc4)CC3)c(F)cc2c1=O,1610,490,1700,320,1240,1080,2560,57,> 3.17,> 3.17,> 30,2350,–
